{"source": "ChEMBL document CHEMBL2203234", "about": "“Optimisation of imidazole compounds as selective TAAR1 agonists: discovery of RO5073012” (Bioorg Med Chem Lett, 2012)", "key": {"[1]": {"molecular_target": "Cysteinyl leukotriene receptor 1 (Homo sapiens) (UniProt Q9Y271)", "sequence (Q9Y271 whole entry)": "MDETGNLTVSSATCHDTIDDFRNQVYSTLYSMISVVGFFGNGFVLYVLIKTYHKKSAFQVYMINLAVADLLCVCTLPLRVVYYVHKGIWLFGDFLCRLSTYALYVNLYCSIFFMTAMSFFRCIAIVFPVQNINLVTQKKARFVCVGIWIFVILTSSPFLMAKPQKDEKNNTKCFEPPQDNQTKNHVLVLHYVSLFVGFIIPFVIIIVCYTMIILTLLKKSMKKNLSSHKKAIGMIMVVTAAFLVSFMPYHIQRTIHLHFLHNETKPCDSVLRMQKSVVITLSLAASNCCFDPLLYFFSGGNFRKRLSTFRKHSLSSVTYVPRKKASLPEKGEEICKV", "experiment": "Inhibition of human LTD4 receptor at 10 uM by CEREP assay"}, "[2]": {"experiment": "Inhibition of Cl- channel at 10 uM by CEREP assay"}, "[3]": {"molecular_target": "T1, Trace amine-associated receptor 1 (Homo sapiens, UniProt Q96RJ0)", "T1 sequence (Q96RJ0 whole entry)": "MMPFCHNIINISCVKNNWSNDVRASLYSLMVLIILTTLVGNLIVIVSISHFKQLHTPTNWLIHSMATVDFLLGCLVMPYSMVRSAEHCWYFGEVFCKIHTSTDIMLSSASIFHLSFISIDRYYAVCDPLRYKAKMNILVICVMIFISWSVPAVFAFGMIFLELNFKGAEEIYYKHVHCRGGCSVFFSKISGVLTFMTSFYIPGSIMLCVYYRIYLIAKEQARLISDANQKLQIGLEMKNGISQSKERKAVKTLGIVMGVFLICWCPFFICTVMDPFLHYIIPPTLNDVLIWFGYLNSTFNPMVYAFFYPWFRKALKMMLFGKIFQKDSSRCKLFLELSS", "experiment": "Displacement of (S)-4-(2,4-difluorophenyl-3-tritio) -4,5-dihydro-2-oxazolamine from human TAAR1 receptor expressed in HEK293 cells after 90 mins by beta counting analysis", "assay_type": "cell-based"}, "[4]": {"molecular_target": "B2 bradykinin receptor (Homo sapiens) (UniProt P30411)", "sequence (P30411 whole entry)": "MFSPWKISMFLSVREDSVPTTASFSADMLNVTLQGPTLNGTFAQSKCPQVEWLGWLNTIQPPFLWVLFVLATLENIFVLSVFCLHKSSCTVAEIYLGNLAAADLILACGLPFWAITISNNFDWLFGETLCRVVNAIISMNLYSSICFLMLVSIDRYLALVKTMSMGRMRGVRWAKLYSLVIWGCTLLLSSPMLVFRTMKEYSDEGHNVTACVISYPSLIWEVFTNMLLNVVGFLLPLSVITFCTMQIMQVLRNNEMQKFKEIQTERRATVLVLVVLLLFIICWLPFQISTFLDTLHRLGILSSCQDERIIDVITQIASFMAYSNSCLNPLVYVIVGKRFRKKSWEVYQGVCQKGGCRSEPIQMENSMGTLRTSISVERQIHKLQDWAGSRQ", "experiment": "Inhibition of human B2 receptor at 10 uM by CEREP assay"}, "[5]": {"experiment": "Inhibition of peripheral BZD receptor at 10 uM by CEREP assay"}, "[6]": {"experiment": "Inhibition of L-type Ca2+ channel diltiazem site at 10 uM by CEREP assay"}, "[7]": {"experiment": "Oral bioavailability in mouse at 7.1 mg/kg", "assay_type": "ADME, organism-based", "conditions": "in vivo"}, "[8]": {"experiment": "Half life in rat at 10 mg/kg, po", "assay_type": "ADME, organism-based", "parameters": "dose 10 mg/kg, route oral", "conditions": "in vivo"}, "[9]": {"experiment": "Inhibition of PDE1 at 10 uM by CEREP assay"}, "[10]": {"molecular_target": "4-aminobutyrate aminotransferase, mitochondrial (Homo sapiens) (UniProt P80404)", "experiment": "Inhibition of GABA transaminase at 10 uM by CEREP assay"}, "[11]": {"experiment": "Inhibition of tyrosine hydroxylase at 10 uM by CEREP assay"}, "[12]": {"molecular_target": "Adenosine receptor A1 (Homo sapiens) (UniProt P30542)", "experiment": "Inhibition of human A1 receptor at 10 uM by CEREP assay"}, "[13]": {"experiment": "Inhibition of Na+ channel site 2 at 10 uM by CEREP assay"}, "[14]": {"molecular_target": "Melanocortin receptor 4 (Homo sapiens) (UniProt P32245)", "experiment": "Inhibition of human MC4 receptor at 10 uM by CEREP assay"}, "[15]": {"molecular_target": "Phosphodiesterase 3 (Homo sapiens) (UniProt Q14432+Q13370)", "experiment": "Inhibition of human PDE3 at 10 uM by CEREP assay", "assay_type": "protein assay"}, "[16]": {"experiment": "Cmax in mouse at 7.1 mg/kg, po", "assay_type": "ADME, organism-based", "parameters": "dose 7.1 mg/kg, route oral", "conditions": "in vivo"}, "[17]": {"molecular_target": "Vasoactive intestinal polypeptide receptor 1 (Homo sapiens) (UniProt P32241)", "sequence (P32241 whole entry)": "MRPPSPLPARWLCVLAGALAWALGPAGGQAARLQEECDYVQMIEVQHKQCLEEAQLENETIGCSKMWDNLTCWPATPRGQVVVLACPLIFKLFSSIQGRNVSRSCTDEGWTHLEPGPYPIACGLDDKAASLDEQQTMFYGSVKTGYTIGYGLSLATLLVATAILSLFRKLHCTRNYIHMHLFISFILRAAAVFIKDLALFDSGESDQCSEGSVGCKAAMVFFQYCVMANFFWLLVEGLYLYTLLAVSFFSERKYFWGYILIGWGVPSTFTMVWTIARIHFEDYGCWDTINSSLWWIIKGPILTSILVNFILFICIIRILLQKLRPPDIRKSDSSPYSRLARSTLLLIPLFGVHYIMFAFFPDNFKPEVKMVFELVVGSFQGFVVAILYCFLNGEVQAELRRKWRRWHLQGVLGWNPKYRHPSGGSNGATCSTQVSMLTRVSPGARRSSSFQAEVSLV", "experiment": "Inhibition of human VIP1 receptor at 10 uM by CEREP assay"}, "[18]": {"molecular_target": "Galanin receptor type 2 (Homo sapiens) (UniProt O43603)", "experiment": "Inhibition of human GAL2 receptor at 10 uM by CEREP assay"}, "[19]": {"molecular_target": "Catechol O-methyltransferase (Homo sapiens) (UniProt P21964)", "experiment": "Inhibition of COMT at 10 uM by CEREP assay"}, "[20]": {"molecular_target": "Leukotriene B4 receptor 1 (Homo sapiens) (UniProt Q15722)", "sequence (Q15722 whole entry)": "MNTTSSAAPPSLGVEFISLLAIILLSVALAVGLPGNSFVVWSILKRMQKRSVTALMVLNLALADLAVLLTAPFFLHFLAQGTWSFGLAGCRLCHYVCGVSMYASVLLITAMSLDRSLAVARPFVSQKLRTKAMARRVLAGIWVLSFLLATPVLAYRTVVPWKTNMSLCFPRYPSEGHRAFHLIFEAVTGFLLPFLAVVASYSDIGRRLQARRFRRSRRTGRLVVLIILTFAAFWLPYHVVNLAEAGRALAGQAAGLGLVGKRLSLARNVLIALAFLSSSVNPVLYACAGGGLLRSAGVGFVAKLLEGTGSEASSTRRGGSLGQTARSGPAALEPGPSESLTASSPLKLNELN", "experiment": "Inhibition of human LTB4 receptor at 10 uM by CEREP assay"}, "[21]": {"experiment": "Inhibition of sigma receptor at 10 uM by CEREP assay"}, "[22]": {"experiment": "Inhibition of Na+/K+ ATPase at 10 uM by CEREP assay"}, "[23]": {"molecular_target": "Melanocyte-stimulating hormone receptor (Homo sapiens) (UniProt Q01726)", "sequence (Q01726 whole entry, looked up)": "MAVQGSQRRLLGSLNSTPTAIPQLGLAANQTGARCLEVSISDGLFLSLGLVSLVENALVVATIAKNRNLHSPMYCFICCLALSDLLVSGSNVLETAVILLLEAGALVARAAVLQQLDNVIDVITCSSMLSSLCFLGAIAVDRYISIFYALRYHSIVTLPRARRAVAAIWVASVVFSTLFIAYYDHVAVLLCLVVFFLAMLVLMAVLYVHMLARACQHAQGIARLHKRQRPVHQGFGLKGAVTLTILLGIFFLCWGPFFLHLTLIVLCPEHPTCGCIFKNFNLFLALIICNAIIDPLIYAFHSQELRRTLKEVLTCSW", "experiment": "Inhibition of MC1 receptor at 10 uM by CEREP assay"}, "[24]": {"molecular_target": "5-hydroxytryptamine receptor 3A (Homo sapiens) (UniProt P46098)", "sequence (P46098 whole entry)": "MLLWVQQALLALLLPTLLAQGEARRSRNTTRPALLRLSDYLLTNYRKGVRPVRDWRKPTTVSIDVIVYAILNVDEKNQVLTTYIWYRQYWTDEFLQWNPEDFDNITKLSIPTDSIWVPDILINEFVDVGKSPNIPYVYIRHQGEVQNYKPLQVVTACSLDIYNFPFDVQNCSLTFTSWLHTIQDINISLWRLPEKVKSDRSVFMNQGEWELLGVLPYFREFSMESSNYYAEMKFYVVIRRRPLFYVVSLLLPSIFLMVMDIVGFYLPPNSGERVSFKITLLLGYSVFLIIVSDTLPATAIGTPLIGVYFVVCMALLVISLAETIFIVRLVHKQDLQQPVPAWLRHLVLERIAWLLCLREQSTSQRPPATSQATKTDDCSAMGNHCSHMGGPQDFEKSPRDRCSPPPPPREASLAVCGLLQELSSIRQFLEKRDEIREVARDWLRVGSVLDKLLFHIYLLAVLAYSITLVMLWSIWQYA", "experiment": "Inhibition of human 5-HT3 receptor at 10 uM by CEREP assay"}, "[25]": {"molecular_target": "Muscarinic acetylcholine receptor M5 (Homo sapiens) (UniProt P08912)", "sequence (P08912 whole entry)": "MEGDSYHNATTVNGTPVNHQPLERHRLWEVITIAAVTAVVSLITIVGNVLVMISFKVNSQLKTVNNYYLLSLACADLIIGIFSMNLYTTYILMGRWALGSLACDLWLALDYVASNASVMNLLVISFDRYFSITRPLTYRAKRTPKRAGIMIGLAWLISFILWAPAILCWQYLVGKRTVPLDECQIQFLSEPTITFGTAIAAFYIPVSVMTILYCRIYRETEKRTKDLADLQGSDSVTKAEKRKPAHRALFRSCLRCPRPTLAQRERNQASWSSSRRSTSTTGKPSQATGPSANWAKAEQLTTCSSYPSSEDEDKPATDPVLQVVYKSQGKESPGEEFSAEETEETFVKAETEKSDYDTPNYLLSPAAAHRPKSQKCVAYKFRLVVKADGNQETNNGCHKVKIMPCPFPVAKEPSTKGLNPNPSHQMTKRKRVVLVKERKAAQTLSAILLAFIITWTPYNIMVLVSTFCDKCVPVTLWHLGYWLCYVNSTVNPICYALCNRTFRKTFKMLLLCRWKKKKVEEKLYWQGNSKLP", "experiment": "Inhibition of human M5 receptor at 10 uM by CEREP assay"}, "[26]": {"experiment": "Half life in mouse at 7.1 mg/kg, po", "assay_type": "ADME, organism-based", "parameters": "dose 7.1 mg/kg, route oral", "conditions": "in vivo"}, "[27]": {"molecular_target": "C5a anaphylatoxin chemotactic receptor 1 (Homo sapiens) (UniProt P21730)", "experiment": "Inhibition of human C5a receptor at 10 uM by CEREP assay"}, "[28]": {"molecular_target": "Cannabinoid receptor 2 (Homo sapiens) (UniProt P34972)", "experiment": "Inhibition of human CB2 receptor at 10 uM by CEREP assay"}, "[29]": {"molecular_target": "5-hydroxytryptamine receptor 4 (Homo sapiens) (UniProt Q13639)", "sequence (Q13639 whole entry)": "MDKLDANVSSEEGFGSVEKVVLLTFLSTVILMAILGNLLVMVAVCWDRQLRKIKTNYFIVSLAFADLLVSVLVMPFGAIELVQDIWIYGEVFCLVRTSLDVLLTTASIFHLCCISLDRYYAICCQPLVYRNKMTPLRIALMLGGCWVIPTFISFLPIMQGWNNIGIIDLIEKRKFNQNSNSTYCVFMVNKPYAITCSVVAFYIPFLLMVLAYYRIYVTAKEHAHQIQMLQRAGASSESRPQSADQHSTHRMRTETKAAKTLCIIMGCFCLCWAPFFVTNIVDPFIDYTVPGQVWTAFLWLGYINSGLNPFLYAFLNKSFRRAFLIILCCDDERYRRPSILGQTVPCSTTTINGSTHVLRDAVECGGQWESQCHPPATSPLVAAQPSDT", "experiment": "Inhibition of human 5-HT4 receptor at 10 uM by CEREP assay"}, "[30]": {"molecular_target": "Kappa-type opioid receptor (Homo sapiens) (UniProt P41145)", "sequence (P41145 whole entry)": "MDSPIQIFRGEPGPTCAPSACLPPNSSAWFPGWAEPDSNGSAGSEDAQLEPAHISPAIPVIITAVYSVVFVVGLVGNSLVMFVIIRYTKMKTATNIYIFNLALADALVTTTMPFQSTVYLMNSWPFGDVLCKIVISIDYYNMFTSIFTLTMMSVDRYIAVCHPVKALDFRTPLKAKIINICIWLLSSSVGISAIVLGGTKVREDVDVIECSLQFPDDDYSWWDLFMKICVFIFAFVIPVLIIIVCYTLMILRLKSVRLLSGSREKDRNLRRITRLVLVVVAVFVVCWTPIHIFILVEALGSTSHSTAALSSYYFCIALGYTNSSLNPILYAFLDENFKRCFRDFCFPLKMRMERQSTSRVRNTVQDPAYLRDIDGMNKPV", "experiment": "Inhibition of KOP receptor at 10 uM by CEREP assay"}, "Homo sapiens": {"organism": "Homo sapiens", "experiment": "Inhibition of human Choline transporter at 10 uM by CEREP assay"}, "[31]": {"experiment": "Inhibition of Guanylyl cyclase at 10 uM by CEREP assay"}, "[32]": {"molecular_target": "Beta-2 adrenergic receptor (Homo sapiens) (UniProt P07550)", "experiment": "Inhibition of human beta 2 adrenergic receptor at 10 uM by CEREP assay"}, "[33]": {"molecular_target": "Thromboxane A2 receptor (Homo sapiens) (UniProt P21731)", "sequence (P21731 whole entry)": "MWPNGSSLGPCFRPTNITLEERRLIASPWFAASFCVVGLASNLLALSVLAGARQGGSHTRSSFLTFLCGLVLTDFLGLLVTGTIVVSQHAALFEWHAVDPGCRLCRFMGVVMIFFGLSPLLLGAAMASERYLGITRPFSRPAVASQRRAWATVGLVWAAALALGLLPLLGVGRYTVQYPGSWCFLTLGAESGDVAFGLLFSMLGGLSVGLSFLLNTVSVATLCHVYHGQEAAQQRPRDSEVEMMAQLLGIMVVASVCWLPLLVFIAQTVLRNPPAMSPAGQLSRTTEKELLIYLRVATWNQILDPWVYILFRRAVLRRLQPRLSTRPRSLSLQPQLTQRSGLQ", "experiment": "Inhibition of human TXA2/PGH2 receptor at 10 uM by CEREP assay"}, "[34]": {"molecular_target": "Corticotropin-releasing factor receptor 1 (Homo sapiens) (UniProt P34998)", "experiment": "Inhibition of human CRF1 receptor at 10 uM by CEREP assay"}, "[35]": {"molecular_target": "Substance-P receptor (Homo sapiens) (UniProt P25103)", "experiment": "Inhibition of human Nk1 receptor at 10 uM by CEREP assay"}, "[36]": {"molecular_target": "Mu-type opioid receptor (Homo sapiens) (UniProt P35372)", "sequence (P35372 whole entry)": "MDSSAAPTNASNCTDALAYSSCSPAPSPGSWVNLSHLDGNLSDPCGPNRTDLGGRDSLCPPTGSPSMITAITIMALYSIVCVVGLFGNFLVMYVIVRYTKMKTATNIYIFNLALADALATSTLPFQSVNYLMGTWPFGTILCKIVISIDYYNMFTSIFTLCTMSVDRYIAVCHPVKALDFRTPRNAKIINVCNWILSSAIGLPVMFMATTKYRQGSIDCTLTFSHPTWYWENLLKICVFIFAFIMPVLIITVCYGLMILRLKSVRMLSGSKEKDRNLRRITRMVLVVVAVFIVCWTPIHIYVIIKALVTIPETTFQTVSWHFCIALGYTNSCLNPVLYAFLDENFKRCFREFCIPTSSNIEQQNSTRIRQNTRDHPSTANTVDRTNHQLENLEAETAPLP", "experiment": "Inhibition of human MOP receptor at 10 uM by CEREP assay"}, "[37]": {"experiment": "Cmax in rat at 10 mg/kg, po", "assay_type": "ADME, organism-based", "parameters": "dose 10 mg/kg, route oral", "conditions": "in vivo"}, "[38]": {"molecular_target": "Histamine H3 receptor (Homo sapiens) (UniProt Q9Y5N1)", "experiment": "Inhibition of human H3 receptor at 10 uM by CEREP assay"}, "[39]": {"molecular_target": "Vasopressin V1a receptor (Homo sapiens) (UniProt P37288)", "experiment": "Inhibition of human V1a receptor at 10 uM by CEREP assay"}, "[40]": {"experiment": "Inhibition of alpha 2 adrenergic receptor by CEREP assay"}, "[41]": {"molecular_target": "Phosphodiesterase 6 (Homo sapiens) (UniProt Q13956+P18545+P35913+O43924+P16499+P51160)", "experiment": "Inhibition of human PDE6 at 10 uM by CEREP assay", "assay_type": "protein assay"}, "[42]": {"molecular_target": "Phenylethanolamine N-methyltransferase (Homo sapiens) (UniProt P11086)", "sequence (P11086 whole entry)": "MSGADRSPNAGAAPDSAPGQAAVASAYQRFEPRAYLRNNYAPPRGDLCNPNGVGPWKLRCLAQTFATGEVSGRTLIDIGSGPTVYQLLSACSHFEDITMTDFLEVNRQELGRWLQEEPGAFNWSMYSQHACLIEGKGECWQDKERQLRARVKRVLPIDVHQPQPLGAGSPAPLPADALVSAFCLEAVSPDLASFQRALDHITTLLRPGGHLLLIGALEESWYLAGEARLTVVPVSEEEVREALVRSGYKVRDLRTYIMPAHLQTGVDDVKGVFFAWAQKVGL", "experiment": "Inhibition of PNMT at 10 uM by CEREP assay"}}, "data": [{"smiles": "CCc1cccc(CC)c1Cc1ncc[nH]1", "values": [{"measurement": "inhibition", "setting": "[1]", "result": 1, "unit": "%"}, {"measurement": "inhibition", "setting": "[2]", "result": 3, "unit": "%"}, {"measurement": "Ki", "setting": "[3]", "result": 24, "unit": "nM"}, {"measurement": "inhibition", "setting": "[4]", "result": 3, "unit": "%"}, {"measurement": "inhibition", "setting": "[5]", "result": 1, "unit": "%"}, {"measurement": "inhibition", "setting": "[6]", "result": 34, "unit": "%"}, {"measurement": "bioavailability", "setting": "[7]", "result": 21, "unit": "%"}, {"measurement": "half-life", "setting": "[8]", "result": 294, "unit": "min"}, {"measurement": "inhibition", "setting": "[9]", "result": 7, "unit": "%"}, {"measurement": "inhibition", "setting": "[10]", "result": 17, "unit": "%"}, {"measurement": "inhibition", "setting": "[11]", "result": 1, "unit": "%"}, {"measurement": "inhibition", "setting": "[12]", "result": 1, "unit": "%"}, {"measurement": "inhibition", "setting": "[13]", "result": 22, "unit": "%"}, {"measurement": "inhibition", "setting": "[14]", "result": -4, "unit": "%"}, {"measurement": "inhibition", "setting": "[15]", "result": -5, "unit": "%"}, {"measurement": "Cmax", "setting": "[16]", "result": 300, "unit": "ng/mL"}, {"measurement": "inhibition", "setting": "[17]", "result": 1, "unit": "%"}, {"measurement": "inhibition", "setting": "[18]", "result": 4, "unit": "%"}, {"measurement": "inhibition", "setting": "[19]", "result": 3, "unit": "%"}, {"measurement": "inhibition", "setting": "[20]", "result": 5, "unit": "%"}, {"measurement": "inhibition", "setting": "[21]", "result": 14, "unit": "%"}, {"measurement": "inhibition", "setting": "[22]", "result": -1, "unit": "%"}, {"measurement": "inhibition", "setting": "[23]", "result": 2, "unit": "%"}, {"measurement": "inhibition", "setting": "[24]", "result": -6, "unit": "%"}, {"measurement": "inhibition", "setting": "[25]", "result": 8, "unit": "%"}, {"measurement": "half-life", "setting": "[26]", "result": 57, "unit": "min"}, {"measurement": "inhibition", "setting": "[27]", "result": -8, "unit": "%"}, {"measurement": "inhibition", "setting": "[28]", "result": -4, "unit": "%"}, {"measurement": "inhibition", "setting": "[29]", "result": 8, "unit": "%"}, {"measurement": "inhibition", "setting": "[30]", "result": 19, "unit": "%"}, {"measurement": "inhibition", "setting": "Homo sapiens", "result": 23, "unit": "%"}, {"measurement": "inhibition", "setting": "[31]", "result": 1, "unit": "%"}, {"measurement": "inhibition", "setting": "[32]", "result": 6, "unit": "%"}, {"measurement": "inhibition", "setting": "[33]", "result": 7, "unit": "%"}, {"measurement": "inhibition", "setting": "[34]", "result": -4, "unit": "%"}, {"measurement": "inhibition", "setting": "[35]", "result": 5, "unit": "%"}, {"measurement": "inhibition", "setting": "[36]", "result": 8, "unit": "%"}, {"measurement": "Cmax", "setting": "[37]", "result": 100, "unit": "ng/mL"}, {"measurement": "inhibition", "setting": "[38]", "result": 6, "unit": "%"}, {"measurement": "inhibition", "setting": "[39]", "result": 1, "unit": "%"}, {"measurement": "Ki", "setting": "[40]", "result": 2400, "unit": "nM"}, {"measurement": "inhibition", "setting": "[41]", "result": 6, "unit": "%"}, {"measurement": "inhibition", "setting": "[42]", "result": 22, "unit": "%"}]}]}
